A short description of series [1]: Accelerated storage at 40° C./75% RH for 14 days. In kind it is physicochemical. Particulars: for XRPD of Output / Nature of solid: 40° C./75% RH, 14 days, unsealed vials; for XRPD of Output: physical stability; for Nature of solid: visual observation for deliquescence; for change in form after stress: after stress at 40° C./75 RH. The text has this:
Samples were visually observed for signs of deliquescence and analysed by XRPD post stressing for physical stability and HPLC for chemical stability.

The nature of series [2]: Heat cycled maturation and solubility assessment (liquors analysed by HPLC versus a standard).
A short description of series [3]: Compression of amorphous solid, analysis by XRPD. The format is physicochemical. To be noted: force of 10^5N for approximately 24 hours. How it is done:
Experimental: D-LSD amorphous oxalate (Lot: DC1134, ˜50 mg) was pressed with a force of 10^5N for approximately 24 hours. The solids were then removed from the press for analysis by XRPD.

Like-named read-outs stand apart in the source and are kept apart here.

As for `CCN(CC)C(=O)[C@@H]1C=C2c3cccc4[nH]cc(c34)C[C@H]2N(C)C1.O=P(O)(O)O` [D-LSD phosphate Pattern C, D-LSD phosphoric acid salt Pattern C], in series [1], the “XRPD of Output” value was “phosphate Pattern C”, the Nature of solid result was “solid” and the “change in form after stress” value is on record as “did not show a change in form”.
Regarding `CCN(CC)C(=O)[C@@H]1C=C2c3cccc4[nH]cc(c34)C[C@H]2N(C)C1.O=C(O)C(O)C(O)C(=O)O` [D-LSD D-tartrate Pattern A, D-LSD D-tartaric acid salt], the “reversibility of water uptake as relative humidity decreases” value (DVS profile, only minor hysteresis) is recorded as “reversible”. Besides, the “weight lost during the initial desorption cycle” value ([…]) stood at 0.6 wt %. For the same compound, the “water absorbed during the subsequent sorption cycle” value reads like this: (at 90% RH) 1%; (up to 80% RH) 0.65%.
`CCN(CC)C(=O)[C@@H]1C=C2c3cccc4[nH]cc(c34)C[C@H]2N(C)C1.O=C(O)C(=O)O` [Amorphous D-LSD oxalate, amorphous D-LSD oxalate salt]: the solubility in series [2] (EtOH, at 25° C., oxalate salt) was greater than 200000 µg/mL; in series [2] (MeOH, at 25° C., oxalate salt), greater than 200000 µg/mL. The “Solubility 25° C.” value in series [2] (solvent 1,4-dioxane, input amorphous D-LSD oxalate) came out at 9200 µg/mL; in series [2] (solvent Chlorobenzene, input amorphous D-LSD oxalate), 2300 µg/mL; in series [2] (solvent EtOAc, input amorphous D-LSD oxalate) it was 3420 µg/mL; in series [2] (solvent IP AC, input amorphous D-LSD oxalate), 4630 µg/mL; in series [2] (solvent MEK, input amorphous D-LSD oxalate), 2610 µg/mL; in series [2] (solvent MIBK, input amorphous D-LSD oxalate), 1600 µg/mL. Moreover, the “Solubility 25° C.” value is 5490 µg/mL in series [2] (solvent MeCN, input amorphous D-LSD oxalate); 6140 µg/mL in series [2] (solvent Me—THF, input amorphous D-LSD oxalate); 8670 µg/mL in series [2] (solvent THF:water (95:5), input amorphous D-LSD oxalate); 6490 µg/mL in series [2] (solvent nitromethane, input amorphous D-LSD oxalate). Moreover, the “form by XRPD after compression” value in series [3] is reported as “remained as an amorphous solid”.
Regarding `CCN(CC)C(=O)[C@@H]1C=C2c3cccc4[nH]cc(c34)C[C@H]2N(C)C1.O=S(=O)(O)O` [D-LSD Sulfate Amorphous Salt, D-LSD sulfate amorphous salt], the solubility was greater than 100000 µg/mL in series [2] (EtOH, at 25° C., sulfate salt); greater than 100000 µg/mL in series [2] (IPA/water (95:5), at 40° C., sulfate salt); greater than 200000 µg/mL in series [2] (MeOH, at 25° C., sulfate salt); greater than 100000 µg/mL in series [2] (iPrOAc/water (98:2), at 40° C., sulfate salt).
As to `CCN(CC)C(=O)C1C=C2c3cccc4[nH]cc(c34)CC2N(C)C1.O=C(O)C(=O)O` [D-LSD oxalate Pattern B], in series [1], the “XRPD of Output” value is on record as “oxalate Pattern B”, the Nature of solid result is “solid” and the “change in form after stress” value is “did not show a change in form”.
Regarding `Br.CCN(CC)C(=O)[C@@H]1C=C2c3cccc4[nH]cc(c34)C[C@H]2N(C)C1` [D-LSD amorphous HBr, D-LSD hydrobromide amorphous salt], the solubility in series [2] (1,4-dioxane, at 40° C., HBr salt) is greater than 100000 µg/mL; in series [2] (EtOH, at 25° C., HBr salt) it was greater than 100000 µg/mL; in series [2] (IPA/water (95:5 v/v), at 40° C., HBr salt), greater than 100000 µg/mL; in series [2] (MEK, at 25° C., HBr salt) it was greater than 100000 µg/mL; in series [2] (MeOH, at 25° C., HBr salt), greater than 200000 µg/mL; in series [2] (THF/water (95:5 v/v), at 25° C., HBr salt), greater than 200000 µg/mL. Besides, the solubility in series [2] (iPrOAc/water (98:2 v/v), at 40° C., HBr salt) is greater than 100000 µg/mL; in series [2] (nitromethane, at 25° C., HBr salt), greater than 100000 µg/mL. Besides, the “Solubility 25° C.” value in series [2] (solvent EtOAc, input D-LSD amorphous HBr) came out at 2630 µg/mL; in series [2] (solvent IPAC*, input D-LSD amorphous HBr), 4190 µg/mL; in series [2] (solvent MIBK, input D-LSD amorphous HBr) it was 16400 µg/mL; in series [2] (solvent MeCN, input D-LSD amorphous HBr), 8680 µg/mL; in series [2] (solvent TBME*, input D-LSD amorphous HBr), 9840 µg/mL; in series [2] (solvent chlorobenzene, input D-LSD amorphous HBr), 3120 µg/mL. The “Solubility 25° C.” value in series [2] (solvent heptane, input D-LSD amorphous HBr) is 50 µg/mL; in series [2] (solvent toluene, input D-LSD amorphous HBr), 3910 µg/mL; in series [2] (solvent water, input D-LSD amorphous HBr), 25100 µg/mL.

Usually solubility stands for how much of the substance goes into solution per volume.

These data come from US12534460B2, “LSD salt crystal forms” (Mind Medicine, Inc., priority 2021, dated 2026).
